Experimental data reported in patent publication US12404289B2 (Gilead Sciences, Inc., priority 2020, dated 2025).

Tested on: Respiratory syncytial virus (RSV) strain A2
Experiment: Hep-2 RSV2 384-well assay (EC50-HEP2-384)
Assay type: cell-based
Conditions: HEp-2 cells, RSV A2, MOI=4, 4 days, Table 3

Point of comparison: `CC(=O)O[C@H]1[C@@H](OC(C)=O)[C@](C#N)(c2ccc3c(N)ncnn23)O[C@@H]1COP(=O)(N[C@@H](C)C(=O)OC1CC2(CCCC2)C1)Oc1ccc(C(C)(C)C)cc1` (stereo partly drawn) [Example 98b, (2R,3R,4R,5R)-2-(4-aminopyrrolo[2,1-f][1,2,4]triazin-7-yl)-5-((((4-(tert-butyl)phenoxy)(((S)-1-oxo-1-(spiro[3.4]octan-2-yloxy)propan-2-yl)amino)phosphoryl)oxy)methyl)-2-cyanotetrahydrofuran-3,4-diyl Diacetate], EC50 52.2 nM. Against it:
- C[C@H](NP(=O)(OC[C@H]1O[C@@](C#N)(c2ccc3c(N)ncnn23)[C@H](O)[C@@H]1O)Oc1ccc(C(C)(C)C)cc1)C(=O)OCC1CC1 (stereo partly drawn) [Example 101b, Cyclopropyl methyl ((((2R,3S,4R,5R)-5-(4-aminopyrrolo[2,1-f][1,2,4]triazin-7-yl)-5-cyano-3,4-dihydroxytetrahydrofuran-2-yl)methoxy)(4-(tert-butyl)phenoxy)phosphoryl)-L-alaninate] — 1.5-fold higher, 79.2 nM
- C[C@H](NP(=O)(OC[C@H]1O[C@@](C#N)(c2ccc3c(N)ncnn23)[C@H](O)[C@@H]1O)Oc1ccc(C(C)(C)C)cc1)C(=O)OC1CC2(CCCC2)C1 (stereo partly drawn) [Example 97b, Spiro[3.4]octan-2-yl ((((2R,3S,4R,5R)-5-(4-aminopyrrolo[2,1-f][1,2,4]triazin-7-yl)-5-cyano-3,4-dihydroxytetrahydrofuran-2-yl)methoxy)(4-(tert-butyl)phenoxy)phosphoryl)-L-alaninate] — 2-fold higher, 106 nM
- CCC(CC)COC(=O)[C@H](C)N[P@@](=O)(OC[C@H]1O[C@@](C#N)(c2ccc3c(N)ncnn23)[C@H](OC(=O)C(C)C)[C@@H]1OC(=O)C(C)C)Oc1cccc2c1CCCC2 [Example 146, (2R,3R,4R,5R)-2-(4-aminopyrrolo[2,1-f][1,2,4]triazin-7-yl)-2-cyano-5-((((R)—(((S)-1-(2-ethylbutoxy)-1-oxopropan-2-yl)amino)((5,6,7,8-tetrahydronaphthalen-1-yl)oxy)phosphoryl)oxy)methyl)tetrahydrofuran-3,4-diyl bis(2-methylpropanoate)] — 8.8-fold higher, 459 nM
- CCC(CC)COC(=O)[C@H](C)NP(=O)(OC[C@H]1O[C@@](C#N)(c2ccc3c(N)ncnn23)[C@H](O)[C@@H]1O)Oc1cccc2c1CCCC2 (single isomer, unassigned) [Example 135] — 24-fold higher, 1260 nM
- CCC(CC)COC(=O)[C@H](C)NP(=O)(OC[C@H]1O[C@@](C#N)(c2ccc3c(N)ncnn23)[C@H](O)[C@@H]1O)Oc1cccc2c1CCCC2 (single isomer, unassigned) [Example 136] — 7.2-fold higher, 377 nM
- CCC(=O)O[C@H]1[C@@H](OC(=O)CC)[C@](C#N)(c2ccc3c(N)ncnn23)O[C@@H]1COP(=O)(N[C@@H](C)C(=O)OCCC(C)(C)CC)Oc1ccccc1 (stereo partly drawn) [Example 105b, (2R,3R,4R,5R)-2-(4-aminopyrrolo[2,1-f][1,2,4]triazin-7-yl)-2-cyano-5-((((((S)-1-((3,3-dimethylpentyl)oxy)-1-oxopropan-2-yl)amino)(phenoxy)phosphoryl)oxy)methyl)tetrahydrofuran-3,4-diyl Dipropionate] — within 1.5-fold, 60.7 nM
- CCCOC(=O)[C@H](C)NP(=O)(OC[C@H]1O[C@@](C#N)(c2ccc3c(N)ncnn23)[C@H](OC(=O)C(C)C)[C@@H]1OC(=O)C(C)C)Oc1ccc(C(C)(C)C)cc1 (single isomer, unassigned) [Example 48b] — within 1.5-fold, 55.4 nM

Same assay, conditions: human respiratory syncytial virus, HEp-2, 96 h, HEp-2 cells, RSV A2, MOI=4, 4 days, Table 3

Point of comparison: `CC(C)C(=O)O[C@H]1[C@@H](OC(=O)C(C)C)[C@](C#N)(c2ccc3c(N)ncnn23)O[C@@H]1COP(=O)(N[C@@H](C)C(=O)OCc1ccccc1)Oc1ccc(C(C)(C)C)cc1` (stereo partly drawn) [Example 58, (2R,3R,4R,5R)-2-(4-aminopyrrolo[2,1-f][1,2,4]triazin-7-yl)-5-((((((S)-1-(benzyloxy)-1-oxopropan-2-yl)amino)(4-(tert-butyl)phenoxy)phosphoryl)oxy)methyl)-2-cyanotetrahydrofuran-3,4-diyl bis(2-methylpropanoate)], EC50 71.5 nM. Against it:
- CC(C)C(=O)O[C@H]1[C@@H](OC(=O)C(C)C)[C@](C#N)(c2ccc3c(N)ncnn23)O[C@@H]1COP(=O)(N[C@@H](C)C(=O)OCC1CCCCC1)Oc1ccc(C(C)(C)C)cc1 (stereo partly drawn) [Example 164, (2R,3R,4R,5R)-2-(4-aminopyrrolo[2,1-f][1,2,4]triazin-7-yl)-5-((((4-(tert-butyl)phenoxy)(((S)-1-(cyclohexylmethoxy)-1-oxopropan-2-yl)amino)phosphoryl)oxy)methyl)-2-cyanotetrahydrofuran-3,4-diyl bis(2-methylpropanoate)] — within 1.5-fold, 107 nM
- CCC(=O)O[C@H]1[C@@H](OC(=O)CC)[C@](C#N)(c2ccc3c(N)ncnn23)O[C@@H]1COP(=O)(N[C@@H](C)C(=O)OCC1CCC1)Oc1ccccc1 (stereo partly drawn) [Example 134, (2R,3R,4R,5R)-2-(4-aminopyrrolo[2,1-f][1,2,4]triazin-7-yl)-2-cyano-5-((((((S)-1-(cyclobutylmethoxy)-1-oxopropan-2-yl)amino)(phenoxy)phosphoryl)oxy)methyl)tetrahydrofuran-3,4-diyl Dipropionate] — within 1.5-fold, 93.8 nM
- CCC(CC)COC(=O)[C@H](C)NP(=O)(OC[C@H]1O[C@@](C#N)(c2ccc3c(N)ncnn23)[C@H](O)[C@@H]1O)Oc1ccc(OC2CCCCC2)cc1 (stereo partly drawn) [Example 140, 2-ethylbutyl ((((2R,3S,4R,5R)-5-(4-aminopyrrolo[2,1-f][1,2,4]triazin-7-yl)-5-cyano-3,4-dihydroxytetrahydrofuran-2-yl)methoxy)(4-(cyclohexyloxy)phenoxy)phosphoryl)-L-alaninate] — 4.2-fold higher, 302 nM
- CC(=O)O[C@H]1[C@@H](OC(C)=O)[C@](C#N)(c2ccc3c(N)ncnn23)O[C@@H]1COP(=O)(N[C@@H](C)C(=O)OC1CCCCC1)Oc1ccc(C(C)(C)C)cc1 (stereo partly drawn) [Example 148, (2R,3R,4R,5R)-2-(4-aminopyrrolo[2,1-f][1,2,4]triazin-7-yl)-5-((((4-(tert-butyl)phenoxy)(((S)-1-(cyclohexyloxy)-1-oxopropan-2-yl)amino)phosphoryl)oxy)methyl)-2-cyanotetrahydrofuran-3,4-diyl Diacetate] — within 1.5-fold, 59.3 nM
- CCOC(=O)[C@H](C)NP(=O)(OC[C@H]1O[C@@](C#N)(c2ccc3c(N)ncnn23)[C@H](OC(C)=O)[C@@H]1OC(C)=O)Oc1ccc(C(C)(C)C)cc1 (stereo partly drawn) [Example 157, (2R,3R,4R,5R)-2-(4-aminopyrrolo[2,1-f][1,2,4]triazin-7-yl)-5-((((4-(tert-butyl)phenoxy)(((S)-1-ethoxy-1-oxopropan-2-yl)amino)phosphoryl)oxy)methyl)-2-cyanotetrahydrofuran-3,4-diyl Diacetate] — within 1.5-fold, 79.5 nM
- CC(C)C(=O)O[C@H]1[C@@H](OC(=O)C(C)C)[C@](C#N)(c2ccc3c(N)ncnn23)O[C@@H]1COP(=O)(N[C@@H](C)C(=O)OC1CC2(CCCC2)C1)Oc1ccc(C(C)(C)C)cc1 (stereo partly drawn) [Example 100a, (2R,3R,4R,5R)-2-(4-aminopyrrolo[2,1-f][1,2,4]triazin-7-yl)-5-((((4-(tert-butyl)phenoxy)(((S)-1-oxo-1-(spiro[3.4]octan-2-yloxy)propan-2-yl)amino)phosphoryl)oxy)methyl)-2-cyanotetrahydrofuran-3,4-diyl bis(2-methylpropanoate)] — 1.6-fold higher, 111 nM
- CCC(CC)COC(=O)[C@H](C)NP(=O)(OC[C@H]1O[C@@](C#N)(c2ccc3c(N)ncnn23)[C@H](OC(C)=O)[C@@H]1OC(C)=O)Oc1ccc(OC2CCCCC2)cc1 (stereo partly drawn) [Example 152, (2R,3R,4R,5R)-2-(4-aminopyrrolo[2,1-f][1,2,4]triazin-7-yl)-2-cyano-5-((((4-(cyclohexyloxy)phenoxy)(((S)-1-(2-ethylbutoxy)-1-oxopropan-2-yl)amino)phosphoryl)oxy)methyl)tetrahydrofuran-3,4-diyl Diacetate] — 3-fold higher, 211 nM
- CCC(=O)O[C@H]1[C@@H](OC(=O)CC)[C@](C#N)(c2ccc3c(N)ncnn23)O[C@@H]1COP(=O)(N[C@@H](C)C(=O)OC1CC2(CCCC2)C1)Oc1ccc(C(C)(C)C)cc1 (stereo partly drawn) [Example 99a, (2R,3R,4R,5R)-2-(4-aminopyrrolo[2,1-f][1,2,4]triazin-7-yl)-5-((((4-(tert-butyl)phenoxy)(((S)-1-oxo-1-(spiro[3.4]octan-2-yloxy)propan-2-yl)amino)phosphoryl)oxy)methyl)-2-cyanotetrahydrofuran-3,4-diyl Dipropionate] — within 1.5-fold, 81.7 nM
- CC(C)C(=O)O[C@H]1[C@@H](OC(=O)C(C)C)[C@](C#N)(c2ccc3c(N)ncnn23)O[C@@H]1COP(=O)(N[C@@H](C)C(=O)OC1CCCCC1)Oc1ccc(C(C)(C)C)cc1 (stereo partly drawn) [Example 149, (2R,3R,4R,5R)-2-(4-aminopyrrolo[2,1-f][1,2,4]triazin-7-yl)-5-((((4-(tert-butyl)phenoxy)(((S)-1-(cyclohexyloxy)-1-oxopropan-2-yl)amino)phosphoryl)oxy)methyl)-2-cyanotetrahydrofuran-3,4-diyl bis(2-methylpropanoate)] — within 1.5-fold, 99.4 nM
- CC(=O)O[C@H]1[C@@H](OC(C)=O)[C@](C#N)(c2ccc3c(N)ncnn23)O[C@@H]1COP(=O)(N[C@@H](C)C(=O)O[C@H]1CCOC1)Oc1ccc(C(C)(C)C)cc1 (stereo partly drawn) [Example 35, (2R,3R,4R,5R)-2-(4-aminopyrrolo[2,1-f][1,2,4]triazin-7-yl)-5-((((4-(tert-butyl)phenoxy)(((S)-1-oxo-1-(((S)-tetrahydrofuran-3-yl)oxy)propan-2-yl)amino)phosphoryl)oxy)methyl)-2-cyanotetrahydrofuran-3,4-diyl Diacetate] — 2.6-fold higher, 185 nM
- CCC(CC)COC(=O)[C@H](C)N[P@](=O)(OC[C@H]1O[C@@](C#N)(c2ccc3c(N)ncnn23)[C@H](OC(=O)C(C)C)[C@@H]1OC(=O)C(C)C)Oc1cccc2c1CCCC2 [Example 144, (2R,3R,4R,5R)-2-(4-aminopyrrolo[2,1-f][1,2,4]triazin-7-yl)-2-cyano-5-((((S)—(((S)-1-(2-ethylbutoxy)-1-oxopropan-2-yl)amino)((5,6,7,8-tetrahydronaphthalen-1-yl)oxy)phosphoryl)oxy)methyl)tetrahydrofuran-3,4-diyl bis(2-methylpropanoate)] — 11-fold higher, 780 nM
- CCOC(=O)[C@H](C)NP(=O)(OC[C@H]1O[C@@](C#N)(c2ccc3c(N)ncnn23)[C@H](O)[C@@H]1O)Oc1ccc(C23CC(C2)C3)cc1 (stereo partly drawn) [Example 41, Ethyl ((((2R,3S,4R,5R)-5-(4-aminopyrrolo[2,1-f][1,2,4]triazin-7-yl)-5-cyano-3,4-dihydroxytetrahydrofuran-2-yl)methoxy)(4-(bicyclo[1.1.1]pentan-1-yl)phenoxy)phosphoryl)-L-alaninate] — 2-fold higher, 142 nM
